Measured values published in ChEMBL document CHEMBL6078648, “Prioritization of Eleven-Nineteen-Leukemia Inhibitors as Orally Available Drug Candidates for Acute Myeloid Leukemia” (J Med Chem, 2024).
Active and inactive are the calls of the source. The calls are words filed in the database; no cut-off is given here.

What was measured:
[1] = system: MV4-11; assay: Cytotoxicity against human MV4-11 cells assessed as cell viability incubated for 8 days by CCK-8 assay; assay type: functional; settings: for CC50: MV4-11, 192 h, time 8 day; for Activity: time 8.0 day
[2] = system: MOLM-13; assay: Cytotoxicity against human MOLM-13 cells assessed as cell viability incubated for 8 days by CCK-8 assay; assay type: functional; settings: for CC50: MOLM-13, 192 h, time 8 day; for Activity: time 8.0 day
[3] = system: Jurkat; assay: Antiproliferative activity against human Jurkat cells assessed as reduction in cell proliferation at 1 uM measured upto 2 weeks; assay type: functional, cell-based
[4] = system: Jurkat; assay: Cytotoxicity against human Jurkat cells assessed as cell viability incubated for 8 days by CCK-8 assay; assay type: functional; settings: 192 h, time 8 day
[5] = Cytotoxicity against human HEK293T cells assessed as cell viability incubated for 8 days by CCK-8 assay; assay type: toxicity, cell-based, HEK-293T; settings: time 8 day
[6] = Metabolic stability in human plasma assessed as parent compound remaining measured after 1 hrs by HPLC-MS/MS analysis; assay type: ADME, cell-free
[7] = system: MOLM-13; assay: Downregulation of MEISI expression in human MOLM-13 cells at 1 uM measured for 72 hrs by qRT-PCR analysis; assay type: functional, cell-based
[8] = system: MOLM-13; assay: Induction of cell cycle arrest in human MOLM-13 cells assessed as increase in accumulation of cells at G1 phase at 1 to 10 uM incubated for 72 hrs by PI staining based flow cytometric analysis; assay type: functional; settings: dose 1-10 µM
[9] = system: MV4-11; assay: Downregulation of HOXA10 expression in human MV4-11 cells at 1 uM measured for 72 hrs by qRT-PCR analysis; assay type: functional, cell-based
[10] = system: MOLM-13; assay: Downregulation of HOXA9 expression in human MOLM-13 cells at 1 uM measured for 72 hrs by qRT-PCR analysis; assay type: functional, cell-based
[11] = system: MV4-11; assay: Downregulation of MYB expression in human MV4-11 cells at 1 uM measured for 72 hrs by qRT-PCR analysis; assay type: functional, cell-based
[12] = system: MOLM-13; assay: Downregulation of MYB expression in human MOLM-13 cells at 1 uM measured for 72 hrs by qRT-PCR analysis; assay type: functional, cell-based
[13] = molecular target: T1, Protein ENL (Homo sapiens) (UniProt Q03111); assay: Binding affinity to ENL in human MV4-11 cells assessed as increase in protein thermal stabilization at 10 uM incubated for 3 to 6 hrs by CETSA analysis; assay type: cell-based; settings: time 3-6 hrs
T1 sequence (whole entry): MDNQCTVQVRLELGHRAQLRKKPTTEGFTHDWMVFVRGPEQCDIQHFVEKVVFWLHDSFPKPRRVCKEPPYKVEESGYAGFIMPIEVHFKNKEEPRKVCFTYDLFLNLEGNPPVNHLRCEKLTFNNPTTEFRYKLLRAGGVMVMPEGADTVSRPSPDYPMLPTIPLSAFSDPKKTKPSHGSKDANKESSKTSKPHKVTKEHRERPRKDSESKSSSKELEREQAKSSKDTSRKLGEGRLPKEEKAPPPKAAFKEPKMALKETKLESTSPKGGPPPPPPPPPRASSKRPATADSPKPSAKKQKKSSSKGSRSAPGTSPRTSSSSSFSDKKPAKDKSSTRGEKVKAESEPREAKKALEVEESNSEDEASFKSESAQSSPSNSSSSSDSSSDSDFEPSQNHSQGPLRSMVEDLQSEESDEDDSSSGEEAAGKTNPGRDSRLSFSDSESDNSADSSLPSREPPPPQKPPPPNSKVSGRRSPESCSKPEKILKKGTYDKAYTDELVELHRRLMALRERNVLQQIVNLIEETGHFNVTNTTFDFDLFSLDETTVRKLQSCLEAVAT

[14] = system: MOLM-13; assay: Downregulation of HOXA10 expression in human MOLM-13 cells at 1 uM measured for 72 hrs by qRT-PCR analysis; assay type: functional, cell-based
[15] = Toxicity in NSG mouse implanted with human MOLM-13 assessed as body weight loss at 200 mg/kg, po qd; assay type: organism-based; settings: in vivo
[16] = system: MOLM-13; assay: Downregulation of MYC expression in human MOLM-13 cells at 1 uM measured for 72 hrs by qRT-PCR analysis; assay type: functional, cell-based
[17] = system: MOLM-13; assay: Antitumor activity against human MOLM-13 cells xenografted in NSG mouse at 400 mg/kg, po qd measured from 10 to 15 days; assay type: functional, organism-based; settings: time 10-15 day
[18] = Toxicity in NSG mouse implanted with human MOLM-13 assessed as tolerability at 200 mg/kg, po qd; assay type: organism-based; settings: in vivo
[19] = system: MV4-11; assay: Downregulation of MEISI expression in human MV4-11 cells at 1 uM measured for 72 hrs by qRT-PCR analysis; assay type: functional, cell-based
[20] = system: MV4-11; assay: Downregulation of MYC expression in human MV4-11 cells at 1 uM measured for 72 hrs by qRT-PCR analysis; assay type: functional, cell-based
[21] = Toxicity in NSG mouse implanted with human MOLM-13 assessed as body weight loss at 200 mg/kg, po qd measured every 2 to 3 days; assay type: organism-based; settings: in vivo, time 2-3 day
[22] = Toxicity in NSG mouse implanted with human MOLM-13 assessed as tolerability at 200 mg/kg, po qd measured every 2 to 3 days; assay type: organism-based; settings: in vivo, time 2-3 day
[23] = Metabolic stability in human plasma assessed as parent compound remaining measured after 2 hrs by HPLC-MS/MS analysis; assay type: ADME, cell-free
[24] = system: MV4-11; assay: Downregulation of HOXA9 expression in human MV4-11 cells at 1 uM measured for 72 hrs by qRT-PCR analysis; assay type: functional, cell-based
[25] = system: MV4-11; assay: Induction of cell cycle arrest in human MV4-11 cells assessed as increase in accumulation of cells at G1 phase at 1 to 10 uM incubated for 72 hrs by PI staining based flow cytometric analysis; assay type: functional; settings: dose 1-10 µM
[26] = molecular target: T1, Protein ENL (Homo sapiens); assay: Binding affinity to ENL in human MOLM-13 cells assessed as increase in protein thermal stabilization at 10 uM incubated for 3 to 6 hrs by CETSA analysis; assay type: cell-based; settings: time 3-6 hrs
[27] = system: MV4-11; assay: Cytotoxicity against human MV4-11 cells assessed as cell viability upto 100 uM incubated for 72 hrs by CCK-8 assay; assay type: functional, cell-based
[28] = system: MOLM-13; assay: Cytotoxicity against human MOLM-13 cells assessed as cell viability upto 100 uM incubated for 72 hrs by CCK-8 assay; assay type: functional, cell-based
[29] = Metabolic stability in mouse liver microsome assessed as half life; assay type: ADME; settings: liver microsomes
[30] = Toxicity in NSG mouse implanted with human MOLM-13 assessed as animal survival at 400 mg/kg, po qd measured every 2 to 3 days and measured at day 15; assay type: organism-based; settings: in vivo, 360 h, time 15 day
[31] = system: MOLM-13; assay: Antitumor activity against human MOLM-13 cells xenografted in NSG mouse assessed as reduction in tumor burden at 400 mg/kg, po qd measured after 13 days; assay type: functional, organism-based; settings: time 13.0 day
[32] = system: HEK-293T; assay: Cytotoxicity against HEK293T cells assessed as reduction in cell viability at 16 uM incubated for 8 days by CCK-8 assay; assay type: toxicity, cell-based; settings: human, 192 h, time 8 day
[33] = system: Jurkat; assay: Cytotoxicity against human Jurkat cells assessed as reduction in cell viability at 16 uM incubated for 8 days by CCK-8 assay; assay type: functional, cell-based; settings: time 8.0 day
[34] = Half life in CD-1 mouse at 20 mg/kg, iv measured upto 24 hrs by HPLC-MS/MS analysis; assay type: ADME, organism-based; settings: in vivo
[35] = system: MOLM-13; assay: Antitumor activity against human MOLM-13 cells xenografted in NSG mouse assessed as reduction in tumor growth at 200 mg/kg, po qd measured after 13 days; assay type: functional, organism-based; settings: time 13.0 day
[36] = Toxicity in NSG mouse implanted with human MOLM-13 assessed as body weight loss at 400 mg/kg, po qd measured every 2 to 3 days and measured at day 15; assay type: organism-based; settings: in vivo, 360 h, time 15 day
[37] = system: Jurkat; assay: Cytotoxicity against human Jurkat cells assessed as cell viability incubated for 72 hrs by CCK-8 assay; assay type: functional
[38] = system: Jurkat; assay: Cytotoxicity against human Jurkat cells assessed as reduction in cell viability at 10 uM incubated for 8 days by CCK-8 assay; assay type: functional, cell-based; settings: time 8.0 day
[39] = system: HEK-293T; assay: Cytotoxicity against HEK293T cells assessed as reduction in cell viability at 10 uM incubated for 8 days by CCK-8 assay; assay type: toxicity, cell-based; settings: human, 192 h, time 8 day
[40] = molecular target: T1, Protein ENL (Homo sapiens); assay: Inhibition of ENL YEATS domain (unknown origin) (1 to 148 residues) preincubated with compound for 1 hr followed by alpha-bead addition and measured after 30 mins under dark condition by Alphascreen assay; settings: time 90.0 min
[41] = molecular target: T1, Protein ENL (Homo sapiens); assay: Binding affinity to ENL YEATS domain (unknown origin) expressed in HEK293 cells incubated for 2 hrs by NanoBRET assay; assay type: cell-based
[42] = molecular target: T1, Protein ENL (Homo sapiens); assay: Binding affinity to ENL YEATS domain (unknown origin) (1 to 148 residues) expressed in HEK293 cells assessed as […] incubated for 2 hrs by NanoBRET assay; assay type: cell-based; settings: dose <= 100.0 µM

CC(C)C1CCN1Cc1cc2cnc(NC(=O)c3ccc4nncn4c3)cc2[nH]1 (stereo unspecified)
CC50 [1]: < 4000 nM | CC50 [2]: < 4000 nM | Activity [3]: inactive | CC50 [4]: > 64 µM | CC50 at 192 h [5]: > 64 µM

O=C(Nc1cc2[nH]c(CN3CCC3C3CC3)cc2cn1)c1ccc2nncn2c1 (stereo unspecified)
Stability [6]: > 60% | Activity [3]: inactive | CC50 at 192 h [5]: > 64 µM

CC(C)[C@H]1CCN1Cc1cc2cnc(NC(=O)c3ccc4nncn4c3)cc2[nH]1
Activity [7]: Active | Activity [8]: Active | Activity [9]: Active | Activity [10]: Active | Activity [11]: Active | Activity [12]: Active | Activity [13]: Active | Activity [14]: Active | CC50 [1]: 810 nM | Activity [15]: Non-toxic | Activity [16]: Active | Activity [17]: Active | CC50 [2]: 1250 nM | Activity [18]: Non-toxic | Activity [19]: Active | Activity [20]: Active | Activity [3]: inactive | Activity [21]: Non-toxic | CC50 [4]: > 64 µM | CC50 at 192 h [5]: > 64 µM | Activity [22]: Non-toxic | Stability [23]: 94.54% | Activity [24]: Active | Activity [25]: Active | Activity [26]: Active

O=C(NCc1cccc(CN2CCC2)c1)c1ccc2nncn2c1
Activity [1]: inactive | Stability [6]: > 60% | Activity [27]: Active | Activity [2]: inactive | Stability [23]: 94.94% | Activity [28]: Active

CSc1ccc(CNC(=O)c2ccc3nncn3c2)cc1
Activity [1]: inactive | Activity [27]: Active | Activity [2]: inactive | Activity [28]: Active

O=C(NCc1ccc(CNc2ncc(F)cn2)cc1)c1ccc2nncn2c1
Activity [1]: inactive | Activity [27]: Active | Activity [2]: inactive | Activity [28]: Active

O=C(NC1CCC1)c1ccc2nc(-c3cccc(NS(=O)(=O)NCCN4CCCCC4)c3)cn2c1
half-life [29]: 9.3 min

CC(C)C1CCN1Cc1ccc(CNC(=O)c2ccc3nncn3c2)cc1 (stereo unspecified)
Activity [7]: Active | Activity [8]: Active | Activity [30]: Non-toxic | Activity [9]: Active | Activity [10]: Active | Activity [11]: Active | Activity [12]: Active | Activity [13]: Active | Activity [14]: Active | Activity [31]: Active | Activity [32]: Non-toxic | Activity [33]: Active | half-life [34]: 111 min | Activity [16]: Active | Activity [35]: inactive | Stability [6]: > 60% | Activity [27]: Active | Activity [36]: Non-toxic | CC50 [37]: > 64 µM | Activity [19]: Active | Activity [20]: Active | Activity [3]: inactive | Activity [21]: Non-toxic | Activity [22]: Non-toxic | Activity [38]: Active | Stability [23]: 95.58% | Activity [39]: Non-toxic | Activity [24]: Active | Activity [25]: Active | Activity [26]: Active | Activity [28]: Active

O=C(NCc1ccc(CN2CCOCC2)cc1)c1ccc2nncn2c1
inhibition [40]: Active

O=C(NCc1ccc(CN2CCC2)cc1)c1ccc2nncn2c1
inhibition [40]: Active

CC1CCN1Cc1ccc(CNC(=O)c2ccc3nncn3c2)cc1 (stereo unspecified)
Activity [1]: inactive | Activity [27]: Active | Activity [2]: inactive | Activity [28]: Active

O=C(NCc1ccc(CN2CCCCC2)cc1)c1ccc2nncn2c1
inhibition [40]: Active

C[C@H]1CCCN1Cc1cc2cnc(NC(=O)c3ccc4nncn4c3)cc2[nH]1
Stability [6]: > 60% | Activity [3]: inactive | CC50 at 192 h [5]: > 64 µM

O=C(CCC1=[N+]2C(=Cc3ccc(-c4ccc[nH]4)n3[B-]2(F)F)C=C1)NCCCCSc1ccc(CNC(=O)c2ccc3nncn3c2)cc1
Activity [41]: Active

O=C(CCC1=[N+]2C(=Cc3ccc(-c4ccc[nH]4)n3[B-]2(F)F)C=C1)NCCCC(=O)Nc1cccc(-c2cn3cc(C(=O)NC4CCC4)ccc3n2)c1
Activity [42]: Dose-dependent-effect
